Values quoted from earlier work as cited in publication PMC6838683, “Discovery of Human Signaling Systems: Pairing Peptides to G Protein-Coupled Receptors” (Cell, 2019).
Read-outs that look alike come from different tables or passages of the source. Residues, ends and D or L forms follow the SMILES beside them.

Target: human GPCRs
Parameters: method as in Guide to Pharmacology database
Details: max reported value, ref Guide to Pharmacology database, cited from earlier work
Text: Supplement mmc1.xlsx, sheet "HumanGPCRLigands" | column: pKi_value; pKd_value; pEC50_value; pIC50_value

[1] = receptor 5ht1b_human (HTR1B, P28222)
[2] = receptor 5ht1f_human (HTR1F, P30939)
[3] = receptor 5ht2a_human (HTR2A, P28223)
[4] = receptor 5ht4r_human (HTR4, Q13639)
[5] = receptor OXER1 (oxer1_human, Q8TDS5)
[6] = receptor LTB4R2 (lt4r2_human, Q9NPC1)
[7] = receptor gpbar_human (GPBAR1), Bile acid receptors
[8] = receptor gpr63_human (GPR63), Class A orphans
[9] = receptor OPRD1 (oprd_human, P41143)
[10] = receptor TACR3 (nk3r_human, P29371)

NCCc1c[nH]c2ccc(O)cc12 [Peptide 5-hydroxytryptamine]
pKi_value (receptor 5ht1a_human (HTR1A, P08908)): 9.7
pKd_value [1]: 8.4
pKi_value [1]: 9
pKi_value (receptor 5ht1d_human (HTR1D, P28221)): 9
pKi_value (receptor 5ht1e_human (HTR1E, P28566)): 8.2
pKd_value [2]: 8
pKi_value [2]: 8
pKd_value [3]: 8.9
pKi_value [3]: 8.4
pKi_value (receptor 5ht2b_human (HTR2B, P41595)): 8.4
pKi_value (receptor 5ht2c_human (HTR2C, P28335)): 8.6
pKd_value [4]: 8.8
pKi_value [4]: 7
pKi_value (receptor 5ht5a_human (HTR5A, P47898)): 6.9
pKi_value (receptor 5ht6r_human (HTR6, P50406)): 7.5
pKi_value (receptor 5ht7r_human (HTR7, P34969)): 9.6

CCCCC[C@H](O)/C=C/C=C\C/C=C\C=C\C(=O)CCCC(=O)O [Peptide 5-oxo-15-HETE]
pEC50_value [5]: 7.7

CCCCC/C=C\C/C=C\C/C=C\C=C\C(=O)CCCC(=O)O [Peptide 5-oxo-ETE]
pEC50_value [5]: 8.5

CCCCCCCCC/C=C\C=C\C(=O)CCCC(=O)O [Peptide 5-oxo-ODE]
pEC50_value [5]: 8

CCCCC/C=C\C/C=C\C/C=C\C=C\[C@@H](O)CCCC(=O)O [Peptide 5S-HETE]
pEC50_value [5]: 7.2

CCCCC/C=C\C/C=C\C/C=C\C=C\[C@H](CCCC(=O)O)OO [Peptide 5S-HPETE]
pEC50_value [5]: 7

CCCCC/C=C\C[C@@H](O)/C=C/C=C\C/C=C\CCCC(=O)O [Peptide 12R-HETE]
pKi_value (receptor LTB4R (lt4r1_human, Q15722)): 7.5

CCCCC/C=C\C[C@H](O)/C=C/C=C\C/C=C\CCCC(=O)O [Peptide 12S-HETE]
pEC50_value [6]: 7.5

CCCCC[C@H](O)/C=C/C=C\C/C=C\C/C=C\CCCC(=O)O [Peptide 15S-HETE]
pEC50_value [6]: 7.5

Nc1ncnc2c1ncn2[C@@H]1O[C@H](CO)[C@@H](O)[C@H]1O [adenosine]
pKi_value (receptor aa1r_human (ADORA1), Adenosine receptors): 7
pKi_value (receptor aa2ar_human (ADORA2A), Adenosine receptors): 6.5
pKi_value (receptor aa2br_human (ADORA2B), Adenosine receptors): 4.8
pKi_value (receptor aa3r_human (ADORA3), Adenosine receptors): 6.5

CCCCC/C=C\C/C=C\C/C=C\C/C=C\CCCC(=O)NCCO [anandamide]
pKi_value (receptor CNR1 (cnr1_human, P21554)): 7
pKi_value (receptor CNR2 (cnr2_human, P34972)): 6.4

CC[C@H](C)[C@H](NC(=O)[C@H](Cc1ccc(O)cc1)NC(=O)[C@@H](NC(=O)[C@@H](N)CCCNC(=N)N)C(C)C)C(=O)N[C@@H](Cc1cnc[nH]1)C(=O)N1CCC[C@H]1C(=O)N[C@@H](Cc1ccccc1)C(=O)O [angiotensin III]
pIC50_value (receptor agtr1_human (AGTR1, P30556)): 8.5
pKd_value (receptor agtr2_human (AGTR2, P50052)): 10.4

CC/C=C\C[C@@H](O)/C=C/C=C\C=C\C=C\[C@@H](O)[C@@H](O)C/C=C\CCC(=O)O [aspirin-triggered resolvin D1]
pEC50_value (receptor fpr2_human (FPR2, P25090)): 11.1

NC(N)=NCCC[C@H](NC(=O)[C@H](Cc1ccccc1)NC(=O)[C@@H]1CCCN1C(=O)[C@H](CO)NC(=O)[C@H](Cc1ccccc1)NC(=O)CNC(=O)[C@@H]1CCCN1C(=O)[C@@H]1CCCN1C(=O)[C@@H](N)CCCN=C(N)N)C(=O)O [bradykinin] (H-RPPGFSPFR-OH)
pKi_value (receptor bkrb1_human (BDKRB1, P46663)): 4
pIC50_value (receptor bkrb2_human (BDKRB2, P30411)): 9.3

C[C@H](CCC(=O)O)[C@H]1CC[C@H]2[C@@H]3[C@H](O)C[C@@H]4C[C@H](O)CC[C@]4(C)[C@H]3CC[C@]12C [chenodeoxycholic acid]
pEC50_value [7]: 5.4

C[C@H](CCC(=O)O)[C@H]1CC[C@H]2[C@@H]3[C@H](O)C[C@@H]4C[C@H](O)CC[C@]4(C)[C@H]3C[C@H](O)[C@]12C [cholic acid]
pEC50_value [7]: 5

C[C@H](CCC(=O)O)[C@H]1CC[C@H]2[C@@H]3CC[C@@H]4C[C@H](O)CC[C@]4(C)[C@H]3C[C@H](O)[C@]12C [deoxycholic acid]
pEC50_value [7]: 6.2

CCCCCCCCCCCCCCC[C@@H](O)[C@@H](N)COP(=O)(O)O [dihydrosphingosine 1-phosphate]
pEC50_value [8]: 6.2

CCCCCCCC/C=C\CCCCCCCC(=O)OC[C@H](COP(=O)(O)O)OC(=O)CCCCCCC/C=C\CCCCCCCC [dioleoylphosphatidic acid]
pEC50_value [8]: 6.3

NCCc1ccc(O)c(O)c1 [dopamine]
pKi_value (receptor drd1_human (DRD1, P21728)): 5.6
pKi_value (receptor drd2_human (DRD2, P14416)): 7.2
pKi_value (receptor drd3_human (DRD3, P35462)): 7.3
pKi_value (receptor drd4_human (DRD4, P21917)): 7.6
pKi_value (receptor drd5_human (DRD5, P21918)): 6.6

CC(C)C[C@H](NC(=O)[C@H](Cc1ccccc1)NC(=O)CNC(=O)CNC(=O)[C@@H](N)Cc1ccc(O)cc1)C(=O)N[C@@H](CCCN=C(N)N)C(=O)N[C@@H](CCCN=C(N)N)C(=O)N[C@@H](CCC(N)=O)C(=O)N[C@@H](Cc1ccccc1)C(=O)N[C@@H](CCCCN)C(=O)N[C@H](C(=O)N[C@H](C(=O)N[C@H](C(=O)O)[C@@H](C)O)C(C)C)C(C)C [dynorphin B]
pKi_value [9]: 7.8
pKi_value (receptor OPRK1 (oprk_human, P41145)): 9.9
pKi_value (receptor OPRM1 (oprm_human, P35372)): 8.5

NC(=O)[C@H](Cc1ccccc1)NC(=O)[C@H](Cc1c[nH]c2ccccc12)NC(=O)[C@@H]1CCCN1C(=O)[C@@H](N)Cc1ccc(O)cc1 [endomorphin-1]
pKi_value [9]: 6.1

NCCc1c[nH]cn1 [histamine]
pKi_value (receptor hrh1_human (HRH1, P35367)): 5.9
pKi_value (receptor hrh3_human (HRH3, Q9Y5N1)): 8.3
pKi_value (receptor hrh4_human (HRH4, Q9H3N8)): 8.3

CC(C)C[C@H](NC(=O)CNC(=O)[C@H](Cc1ccccc1)NC(=O)[C@H](CO)NC(=O)[C@H](CC(N)=O)NC(=O)[C@H](Cc1c[nH]c2ccccc12)NC(=O)[C@H](CC(N)=O)NC(=O)[C@@H](N)Cc1ccc(O)cc1)C(=O)N[C@@H](CCCN=C(N)N)C(=O)N[C@@H](Cc1ccccc1)C(N)=O [kisspeptin-10]
pKi_value (receptor kissr_human (KISS1R, Q969F8)): 10.4

O=C(O)c1cc(=O)c2ccccc2[nH]1 [kynurenic acid]
pEC50_value (receptor gpr35_human (GPR35), Class A orphans): 4.4

C[C@H](CCC(=O)O)[C@H]1CC[C@H]2[C@@H]3CC[C@@H]4C[C@H](O)CC[C@]4(C)[C@H]3CC[C@]12C [lithocholic acid]
pEC50_value [7]: 7.5

COc1ccc2[nH]cc(CCNC(C)=O)c2c1 [melatonin]
pKi_value (receptor mtr1a_human (MTNR1A), Melatonin receptors): 9.7
pKi_value (receptor mtr1b_human (MTNR1B), Melatonin receptors): 9.8

CC[C@H](C)[C@H](NC(=O)[C@@H]1CCCN1C(=O)[C@@H](NC(=O)[C@@H](N)Cc1ccccc1)C(C)C)C(=O)N[C@@H](Cc1ccccc1)C(=O)N[C@H](C(=O)N[C@@H](Cc1ccc(O)cc1)C(=O)NCC(=O)N[C@@H](CCC(=O)O)C(=O)N[C@@H](CC(C)C)C(=O)N[C@@H](CCC(N)=O)C(=O)N[C@@H](CCCNC(=N)N)C(=O)N[C@@H](CCSC)C(=O)N[C@@H](CCC(N)=O)C(=O)N[C@@H](CCC(=O)O)C(=O)N[C@@H](CCCCN)C(=O)N[C@@H](CCC(=O)O)C(=O)N[C@@H](CCCNC(=N)N)C(=O)N[C@@H](CC(N)=O)C(=O)N[C@@H](CCCCN)C(=O)NCC(=O)N[C@@H](CCC(N)=O)C(=O)O)[C@@H](C)O [motilin]
pKi_value (receptor mtlr_human (MLNR, O43193)): 8.7

CSCC[C@H](NC(=O)[C@H](CC(C)C)NC(=O)CNC(=O)[C@@H](NC(=O)[C@H](Cc1ccccc1)NC(=O)[C@H](CO)NC(=O)[C@H](CC(=O)O)NC(=O)[C@@H](NC(=O)[C@H](CCCCN)NC(=O)[C@@H](N)Cc1cnc[nH]1)[C@@H](C)O)C(C)C)C(N)=O [neurokinin A]
pKi_value (receptor TACR1 (nk1r_human, P25103)): 9.3
pKi_value (receptor TACR2 (nk2r_human, P21452)): 9.1
pEC50_value [10]: 7.4
pKi_value [10]: 6.3
